Test systems include HL-60(TB) leukemia; SF-268 CNS; TK-10 renal; BT-549 breast; HOP-62 NSCLC; CCRF-CEM leukemia; SK-MEL-28 melanoma; SF-295 CNS; A549 NSCLC; SNB-75 CNS.
What all share (assay): inhibition of tumour cell growth, NCI panel, 48 h

Molecules are shown by their SMILES.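 Growth conditions: 96-well plates. Treatment: test compound, 48 hours, 5 concentrations. Analysis: linear interpolation between bracketing concentrations; unreached endpoints set to highest concentration. At the GI50, growth is halved. The concentration for full growth arrest is given as TGI.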 Bounds are passed on as bounds.

This note sets out measurements from PubChem BioAssay (NCI).

On to `COc1ccc([N+](=O)[O-])cc1[I+]c1cc([N+](=O)[O-])ccc1OC`, for which the TGI with HL-60(TB) leukemia is 97.6 µM; in the test on SF-268 CNS it was > 100 µM; in the test on TK-10 renal, > 100 µM; in the test with BT-549 breast it was > 100 µM; in the test with HOP-62 NSCLC, > 100 µM; in the test with CCRF-CEM leukemia it was > 100 µM. Besides, the TGI was 21.8 µM with SK-MEL-28 melanoma, > 100 µM with SF-295 CNS and > 100 µM with A549 NSCLC.

As to `O=C(Nc1ccc(-n2cc(-c3ccncc3)c(-c3ccc(O)c(Cl)c3)n2)cc1)c1ccc(Cl)c(Cl)c1`, the GI50 with HL-60(TB) leukemia is 1.39 µM; with SNB-75 CNS, 2.64 µM; in the test on SF-268 CNS, > 32.5 µM; in the test with TK-10 renal, 1.52 µM; in the test on HOP-62 NSCLC, 2 µM; in the test with CCRF-CEM leukemia, 1.01 µM. The GI50 is > 32.5 µM with SK-MEL-28 melanoma, 0.833 µM in the test with SF-295 CNS and 2.87 µM in the test with A549 NSCLC. Besides, the TGI in the test on HL-60(TB) leukemia, with SNB-75 CNS, in the test with SF-268 CNS, in the test on TK-10 renal, with HOP-62 NSCLC and with CCRF-CEM leukemia was > 32.5 µM throughout. The TGI with SK-MEL-28 melanoma is > 32.5 µM; in the test with SF-295 CNS it was 2.26 µM; in the test on A549 NSCLC, > 32.5 µM.

For `CCCCC[C@H]1CC=CC(=O)O1`, the TGI in the test with HL-60(TB) leukemia stood at 20.3 µM; in the test with SF-268 CNS, 22.3 µM; with TK-10 renal it was 40.4 µM; in the test with BT-549 breast, 20.3 µM; in the test on HOP-62 NSCLC it was 45.3 µM; in the test on CCRF-CEM leukemia it was 40.6 µM. The values for the TGI in the test on SK-MEL-28 melanoma, in the test on SF-295 CNS and in the test with A549 NSCLC were 20.5 µM, 37.1 µM and 60.5 µM, respectively.

For the molecule `COc1cccc(/C=N/[N-]C(N)=O)c1[O-].[OH3+].[Zn+2]`, the TGI with SNB-75 CNS, with SF-268 CNS, with TK-10 renal, in the test on HOP-62 NSCLC, in the test on CCRF-CEM leukemia and in the test with SK-MEL-28 melanoma was > 100 µM in each case. Further, the TGI with SF-295 CNS and in the test on A549 NSCLC was > 100 µM in each case.

Take `NC(=O)OCc1c(O)c2c(c(O)c1COC(N)=O)C(=O)C=CC2=O`: the TGI in the test with HL-60(TB) leukemia, in the test with SNB-75 CNS, with SF-268 CNS, in the test on TK-10 renal, in the test on HOP-62 NSCLC and in the test on CCRF-CEM leukemia was > 100 µM each time. The TGI with SK-MEL-28 melanoma, with SF-295 CNS and in the test on A549 NSCLC was > 100 µM each time.

Regarding `Cc1ccc(CCCC(=O)O)cc1C`, the TGI in the test with HL-60(TB) leukemia, in the test with SNB-75 CNS, in the test on SF-268 CNS, in the test with TK-10 renal, in the test with BT-549 breast and in the test with HOP-62 NSCLC was > 100 µM throughout. For the same molecule, the TGI in the test on CCRF-CEM leukemia, in the test on SK-MEL-28 melanoma, in the test with SF-295 CNS and in the test with A549 NSCLC was > 100 µM each time.

In the case of `CSc1nc(NC2OC(CO)C(O)C(O)C2O)c(N)c(=O)n1C` (configuration not stated), the TGI in the test on HL-60(TB) leukemia, with SNB-75 CNS, in the test on SF-268 CNS, in the test on HOP-62 NSCLC, with CCRF-CEM leukemia and with SK-MEL-28 melanoma was > 100 µM throughout. In addition, the TGI with SF-295 CNS and with A549 NSCLC was > 100 µM throughout.

For the molecule `O=C1c2ccccc2-c2ccc(N(Cc3ccc(Br)cc3)Cc3ccc(Br)cc3)cc21`, the TGI was 46.8 µM with HL-60(TB) leukemia; > 100 µM in the test with SNB-75 CNS; > 100 µM in the test on SF-268 CNS; > 100 µM in the test on TK-10 renal; > 100 µM in the test on BT-549 breast; > 100 µM in the test with HOP-62 NSCLC. Besides, the TGI in the test on CCRF-CEM leukemia was 46.2 µM; in the test with SK-MEL-28 melanoma, > 100 µM; with SF-295 CNS it was > 100 µM; in the test on A549 NSCLC, > 100 µM.

Turning to `CCCCCCCCCCCCCCCc1ccc(C(=O)C[n+]2ccccc2)cc1`, the GI50 with HL-60(TB) leukemia is 0.531 µM; with TK-10 renal, 1.12 µM; in the test with BT-549 breast, 2.88 µM; in the test on SK-MEL-28 melanoma, 1.21 µM; with SF-295 CNS it was 0.653 µM; in the test with A549 NSCLC it was 0.731 µM. Besides, the TGI with HL-60(TB) leukemia stood at 2.52 µM; with TK-10 renal it was 2.72 µM; with BT-549 breast it was 12.3 µM; with SK-MEL-28 melanoma, 2.99 µM; with SF-295 CNS, 14.2 µM; in the test on A549 NSCLC, 2.03 µM.

`CCOC(=O)c1c(C)n(-c2ccc(C)cc2)c2c1cc(O)c1[nH]c3c(c12)CCCC3`: the TGI in the test on HL-60(TB) leukemia was 51.7 µM; with SNB-75 CNS it was 12.4 µM; in the test on SF-268 CNS, 55.2 µM; with TK-10 renal, 77.8 µM; in the test with BT-549 breast, 26.2 µM; with HOP-62 NSCLC, > 100 µM. Moreover, the TGI in the test with CCRF-CEM leukemia was 7.64 µM; in the test on SK-MEL-28 melanoma, 33.1 µM; in the test with SF-295 CNS, 65.2 µM; with A549 NSCLC, > 100 µM.

On to `O=C(c1no[n+]([O-])c1C(=O)c1csc2ccccc12)c1csc2ccccc12`, for which the TGI was determined as 0.0737 µM in the test on HL-60(TB) leukemia; 28.5 µM with SNB-75 CNS; 23.2 µM in the test on SF-268 CNS; 4.9 µM in the test with TK-10 renal; 19.3 µM with BT-549 breast; 25.4 µM in the test on HOP-62 NSCLC. The TGI in the test with CCRF-CEM leukemia was 0.267 µM; with SK-MEL-28 melanoma it was 11 µM; with SF-295 CNS it was 29 µM; in the test with A549 NSCLC, 35.7 µM.

Consider `COc1ccc(C2C(Cl)C(=O)N2NC(=O)c2ccc(NC(C)=O)cc2)cc1OC` (configuration not stated), for which the TGI with HL-60(TB) leukemia, with SNB-75 CNS, in the test on SF-268 CNS, in the test on TK-10 renal, in the test with HOP-62 NSCLC and in the test on CCRF-CEM leukemia was > 100 µM throughout. In addition, the TGI in the test on SK-MEL-28 melanoma, with SF-295 CNS and with A549 NSCLC was > 100 µM throughout.

Regarding `CNC1=C(C)C(=O)C2=C(C1=O)C(COC(N)=O)C1(OC)C3NC3CN21` (configuration not stated), the TGI is > 100 µM in the test on HL-60(TB) leukemia; 0.971 µM in the test with SNB-75 CNS; 12.9 µM in the test with SF-268 CNS; 94.1 µM in the test with TK-10 renal; 2.38 µM in the test with HOP-62 NSCLC; > 100 µM in the test with CCRF-CEM leukemia. For the same molecule, the TGI in the test on SK-MEL-28 melanoma was 6.43 µM; in the test on SF-295 CNS it was 10.5 µM; in the test with A549 NSCLC, > 100 µM.

For the molecule `N=C(N)c1ccc(-c2ccc(-c3ccccc3)o2)cc1`, the GI50 with HL-60(TB) leukemia is 1.93 µM; in the test on SNB-75 CNS, 1.45 µM; in the test on SF-268 CNS it was 1.96 µM; with TK-10 renal, 1.89 µM; in the test on BT-549 breast, 13.1 µM; in the test on HOP-62 NSCLC, 1.98 µM. The GI50 with CCRF-CEM leukemia was 2.13 µM; in the test on SK-MEL-28 melanoma it was 1.67 µM; with A549 NSCLC, 2.51 µM. Besides, the TGI was 4.42 µM with HL-60(TB) leukemia; 3.43 µM in the test with SNB-75 CNS; 4.28 µM in the test with SF-268 CNS; 3.73 µM in the test on TK-10 renal; 39.9 µM with BT-549 breast; 5.13 µM in the test on HOP-62 NSCLC. Besides, the TGI in the test with CCRF-CEM leukemia amounted to 5.03 µM; in the test on SK-MEL-28 melanoma it was 3.35 µM; in the test on A549 NSCLC it was 6.24 µM.

`NC(N)=NCCCS(=O)(=O)Nc1ccc(Nc2c3ccccc3nc3cc([N+](=O)[O-])ccc23)cc1`: the TGI in the test with HL-60(TB) leukemia was > 82.4 µM; in the test on SNB-75 CNS it was 45.8 µM; with SF-268 CNS it was 35.6 µM; with TK-10 renal, > 84.5 µM; in the test on BT-549 breast, 94.4 µM; in the test with HOP-62 NSCLC, 39.3 µM. Moreover, the TGI is > 74.9 µM with CCRF-CEM leukemia, 40.7 µM in the test on SK-MEL-28 melanoma, 59 µM in the test with SF-295 CNS and 36.6 µM in the test on A549 NSCLC.

Regarding `CC(C)=CCC/C(C)=C/CC/C(C)=C/C(O)c1ccccc1` (configuration not stated), the TGI came to 43.8 µM in the test with HL-60(TB) leukemia; 35.3 µM in the test on SF-268 CNS; 88.4 µM in the test on TK-10 renal; 34.3 µM with HOP-62 NSCLC; 52.4 µM with CCRF-CEM leukemia; 33.8 µM with SF-295 CNS.

`CC(C)c1cccc(C(C)C)c1NC(=S)Nc1ccccc1`: the TGI in the test on HL-60(TB) leukemia is 32.4 µM; with SNB-75 CNS it was > 100 µM; in the test with SF-268 CNS it was > 100 µM; in the test with TK-10 renal it was > 100 µM; in the test on HOP-62 NSCLC it was > 100 µM; in the test with CCRF-CEM leukemia, > 100 µM. In addition, the TGI with SK-MEL-28 melanoma, with SF-295 CNS and in the test with A549 NSCLC was > 100 µM throughout.

For the molecule `CC(=O)Nc1ccc2c(c1)C(=Nc1ccc(C(=O)O)cc1)c1ccccc1-2`, the TGI in the test on SF-268 CNS, in the test with TK-10 renal, in the test on BT-549 breast, in the test with HOP-62 NSCLC, in the test on CCRF-CEM leukemia and in the test on SK-MEL-28 melanoma was > 100 µM throughout. The TGI in the test on SF-295 CNS and in the test with A549 NSCLC was > 100 µM in each case.

As to `COC(=O)c1c(OC(C)=O)ccc2c1c1c(n2Cc2ccccc2)C(=O)c2ccccc2C1=O`, the TGI is 57.2 µM in the test on HL-60(TB) leukemia; 52.4 µM in the test with SNB-75 CNS; 78.1 µM in the test on SF-268 CNS; 95.4 µM in the test on TK-10 renal; 48.5 µM in the test on BT-549 breast; 44.5 µM with HOP-62 NSCLC. Further, the TGI in the test with CCRF-CEM leukemia was found to be 68.6 µM; in the test with SK-MEL-28 melanoma, 41.2 µM; in the test on SF-295 CNS, 38.5 µM; with A549 NSCLC, 83.9 µM.

Take `CCN(CC)CCSc1nc2c([N+](=O)[O-])cccc2[nH]1`: the TGI in the test on HL-60(TB) leukemia, in the test with SNB-75 CNS, in the test with TK-10 renal, in the test with CCRF-CEM leukemia, in the test with SK-MEL-28 melanoma and with A549 NSCLC was > 100 µM each time.

In the case of `N=C1SCCS1`, the TGI in the test with HL-60(TB) leukemia, with SNB-75 CNS, in the test with SF-268 CNS, in the test on TK-10 renal, in the test with HOP-62 NSCLC and in the test on CCRF-CEM leukemia was > 100 µM throughout. Moreover, the TGI with SK-MEL-28 melanoma, in the test with SF-295 CNS and with A549 NSCLC was > 100 µM in each case.

For the molecule `Nc1cccc2cc(S(=O)(=O)Nc3ccc(C(=O)O)cc3)ccc12`, the TGI in the test on HL-60(TB) leukemia, in the test with SNB-75 CNS, in the test on SF-268 CNS, with TK-10 renal, in the test on BT-549 breast and with HOP-62 NSCLC was > 100 µM each time. Also, the TGI in the test with CCRF-CEM leukemia, with SK-MEL-28 melanoma, with SF-295 CNS and with A549 NSCLC was > 100 µM in each case.
